In paper PMC2574679 (Journal of the American Chemical Society, 2008):

Target: Bcl-XL (Homo sapiens, UniProt Q07817)
Assay type: binding

Bcl-XL, sequence (Q07817 whole entry): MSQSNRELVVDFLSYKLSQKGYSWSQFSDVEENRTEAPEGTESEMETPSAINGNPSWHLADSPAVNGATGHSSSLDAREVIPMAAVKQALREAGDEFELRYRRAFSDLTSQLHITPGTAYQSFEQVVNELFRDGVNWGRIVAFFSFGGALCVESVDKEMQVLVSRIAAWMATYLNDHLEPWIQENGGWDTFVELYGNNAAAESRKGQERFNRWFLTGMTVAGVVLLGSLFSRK

Work on `CC1(C)CCN(c2ccc(C(=O)NS(=O)(=O)c3ccc(NCCSc4ccccc4)c([N+](=O)[O-])c3)cc2)CC1` [SZ4TA2] yielded an IC50 of 78.8 nM.
